Reference: patent US7868013B2, “Cycloalkyl substituted pyrimidinediamine compounds and their uses” (Rigel Pharmaceuticals, Inc., priority 2004, dated 2011)
pIC50: −log10 of the molar value. Counter-ions that a name gives are not always drawn. Like-named read-outs stand apart in the source and are kept apart here.

Columns and labels:
Format in all cases: cell-based
[1] = tested on: a variety of tumor cell types; experiment: In vitro antiproliferation assays against a variety of tumor cell types (stereoisomer comparison); settings: for Inhibition of proliferation of a variety of tumor cell lines: in words
Protocol: Moreover, it has been discovered that the enantiomer corresponding to the (1R,2R,3S,4S) diastereomer of structural formula (IVa) is largely responsible for the potency of the exo-exo cis racemate.
(§1) Certain compounds were tested against other cell types for their ability to inhibit proliferation in standard antiproliferation assays.

[2] = tested on: A549 (lung carcinoma); experiment: In vitro antiproliferation assay, A549 cells (TABLE 1 6 point assay; TABLE 2); settings: Homo sapiens
Protocol: as §1

[3] = tested on: H1299 (non-small cell lung carcinoma); experiment: In vitro antiproliferation assay, H1299 cells (TABLE 1 6 point assay; TABLE 2); settings: Homo sapiens
Protocol: as §1

[4] = A549, A549 cells, 6 point assay, read-out: A549, 6pt (IC50, inhibition of proliferation)
[5] = NCI-H1299, H1299 cells, 6 point assay, read-out: H1299, 6pt (IC50, inhibition of proliferation)
[6] = A549, 6 point assay, A549 cells, read-out: IC50, A549 cells
[7] = NCI-H1299, 6 point assay, H1299 cells, read-out: IC50, H1299 cells

SMILES	pIC50 [2, 4]	pIC50 [3, 5]	pIC50 [2, 6]	pIC50 [3, 7]	other results
Cc1cc(Nc2ncc(F)c(NC3C4C=CC(C4)C3C(N)=O)n2)ccc1N1CCN(C)CC1 (racemic) [cis exo-exo racemate, N4-(3-aminocarbonylbicyclo[2.2.1]hept-5-en-2-yl)-5-fluoro-N2-[3-methyl-4-(4-methylpiperazin-1-yl)phenyl]-2,4-pyrimidinediamine]	–	–	–	–	Potency relative to the cis endo-endo racemate ([1]; cis exo-exo racemate, all cell lines tested): approximately twenty-fold more potent
Cc1cc(Nc2ncc(F)c(NC3CCCC3C(N)=O)n2)ccc1N1CCN(C)CC1 [cis (1S,2R), N4-(2-aminocarbonylcyclopent-1-yl)-5-fluoro-N2-[4-(4-methylpiperazin-1-yl)-3-methylphenyl]-2,4-pyrimidinediamine]	–	–	–	–	Inhibition of proliferation of a variety of tumor cell lines [1]: inhibit the proliferation
Cc1cc(Nc2ncc(F)c(NC3C4C=CC(C4)C3C(N)=O)n2)ccc1N1CCN(C)CC1 [(1S,2S,3R,4R) diastereomer, N4-(3-aminocarbonylbicyclo[2.2.1]hept-5-en-2-yl)-5-fluoro-N2-[3-methyl-4-(4-methylpiperazin-1-yl)phenyl]-2,4-pyrimidinediamine]	–	–	–	–	IC50s when tested as isolated stereoisomers ([1]; range in words, same cell lines): micromolar range
Cc1cc(Nc2ncc(F)c(NC3CCCC3C(N)=O)n2)ccc1N1CCN(C)CC1 [trans (1S,2S) diastereomer, N4-(2-aminocarbonylcyclopent-1-yl)-5-fluoro-N2-[4-(4-methylpiperazin-1-yl)-3-methylphenyl]-2,4-pyrimidinediamine]	–	–	–	–	Inhibition of proliferation of a variety of tumor cell lines [1]: relatively inactive
Cc1cc(Nc2ncc(F)c(NC3CCCC3C(N)=O)n2)ccc1N1CCN(C)CC1 [cis (1R,2S), N4-(2-aminocarbonylcyclopent-1-yl)-5-fluoro-N2-[4-(4-methylpiperazin-1-yl)-3-methylphenyl]-2,4-pyrimidinediamine]	–	–	–	–	Inhibition of proliferation of a variety of tumor cell lines [1]: inhibit the proliferation
CN1CCC(c2cccc(Nc3ncc(F)c(N[C@H]4[C@@H](C(N)=O)[C@@H]5C=C[C@H]4C5)n3)c2)CC1 [compound 145, (1R,2R,3S,4S)-N4-(3-Aminocarbonylbicyclo[2.2.1]hept-5-en-2-yl)-5-fluoro-N2-[3-(1-methylpiperidin-4-yl)phenyl]-2,4-pyrimidinediamine Mono- Hydrochloric Acid Salt]	≥ 7.00	≥ 7.00	–	–	–
CCOC(=O)[C@@H]1CCC[C@H]1Nc1nc(Nc2ccc(N3CCN(C)CC3)c(C)c2)ncc1F [compound 210, (1R,2R)-N4-(2-Ethoxycarbonylcyclopent-1-yl)-5-fluoro-N2-{3-methyl-4-(4-methylpiperazino)phenyl]-2,4-pyrimidinediamine]	–	–	5.00 to 6.00	5.00 to 6.00	–
Cc1cc(Nc2ncc(F)c(NC3C4C=CC(C4)C3C(N)=O)n2)ccc1O (racemic) [compound 250, Racemic-(2-exo,3-exo)-N4-(3-aminocarbonylbicyclo[2.2.1]hept-5-en-2-yl)-5-fluoro-N2-[(4-hydroxy-3-methyl)phenyl]-2,4-pyrimidinediamine]	–	–	≥ 7.00	≥ 7.00	–
NC(=O)[C@@H]1[C@H](Nc2nc(Nc3ccc(OC(F)(F)F)c(Cl)c3)ncc2F)[C@H]2C=C[C@@H]1C2 [compound 148, (1R,2R,3S,4S)-N4-(3-Aminocarbonylbicyclo[2.2.1]hept-5-en-2-yl)-N2-(3-chloro-4-trifluoromethoxyphenyl)-5-fluoro-2,4-pyrimidinediamine]	5.00 to 6.00	5.00 to 6.00	–	–	–
Cc1cc(Nc2ncc(F)c(N[C@@H]3[C@H](C(N)=O)[C@@H]4C=C[C@H]3C4)n2)ccc1N1CCN(C)CC1 [compound 154]	6.00 to 7.00	6.00 to 7.00	–	–	–
Cc1cc(Nc2ncc(F)c(NC3CCCC3C(N)=O)n2)cc(C)c1O (stereo not drawn) [compound 213, (cis)-N4-(2-Carboxamidocyclopent-1-yl)-N2-(3,5-dimethyl-4-hydroxyphenyl)-5-fluoro-2,4-pyrimidinediamine]	–	–	6.00 to 7.00	6.00 to 7.00	–
CN(C)CCn1ccc2ccc(Nc3ncc(F)c(NC4C5C=CC(C5)C4C(N)=O)n3)cc21 (racemic) [compound 163, Racemic-(2-exo,3-exo)-N4-[3-aminocarbonylbicyclo[2.2.1]hept-5-en-2-yl)-N2-[1-(2-dimethylaminoethyl)indol-6-yl]-5-fluoro-2,4-pyrimidinediamine]	6.00 to 7.00	6.00 to 7.00	–	–	–
Cc1ccc(Nc2ncc(F)c(NC3C4C=CC(C4)C3C(N)=O)n2)cc1OCC(=O)N1CCOCC1 (racemic) [compound 103, Racemic-(2-exo, 3-exo)-N4-(3-aminocarbonylbicyclo[2.2.1]hept-5-en-2-yl)-5-fluoro-N2-[4-methyl-3-(N-morpholinyl)carbonylmethyleneoxyphenyl]-2,4-pyrimidinediamine]	6.00 to 7.00	≥ 7.00	–	–	–
Cc1cc(Nc2ncc(F)c(N[C@H]3CCC[C@H]3C(N)=O)n2)ccc1N1CC2CC1CN2C (mixture of isomers) [compound 282, Racemic-cis-N4-(2-aminocarbonylcyclopent-1-yl)-5-fluoro-N2-[3-methyl-4-(5-methyl-(1S,4S)-2,5-diazabicyclo[2.2.1]heptan-2-yl)phenyl]-2,4-pyrimidinediamine]	–	–	6.00 to 7.00	6.00 to 7.00	–
CCOC(=O)N1CCN(c2ccc(Nc3ncc(F)c(NC4CCCC4C(N)=O)n3)cc2)CC1 (stereo not drawn) [compound 199, N4-(2-Carboxamidocyclopentyl)-N2-[4-(4-ethoxycarbonylpiperazino)phenyl]-5-fluoro-2,4-pyrimidinediamine]	–	–	6.00 to 7.00	6.00 to 7.00	–
Cc1cc(Nc2ncc(F)c(N[C@H]3[C@@H](C(N)=O)[C@@H]4C=C[C@H]3C4)n2)ccc1N1CCN(C)CC1 [compound 121, (1R,2R,3S,4S)-N4-(3-Aminocarbonylbicyclo[2.2.1]hept-5-ene-2-yl)-5-fluoro-N2-[3-methyl-4-(4-methylpiperazin-1-yl)phenyl]-2,4-pyrimidinediamine Adipic Acid Salt]	≥ 7.00	≥ 7.00	–	–	–
CN1CCN(Cc2cc3cc(Nc4ncc(F)c(N[C@H]5CCC[C@H]5C(N)=O)n4)ccc3o2)CC1 (racemic) [compound 131, Racemic-cis-N4-(2-aminocarbonylcyclopent-1-yl)-5-fluoro-N2-[2-(4-methylpiperazin-1-ylmethylene)benzofuran-5-yl]-2,4-pyrimidinediamine]	5.00 to 6.00	5.00 to 6.00	–	–	–
NC(=O)[C@@H]1CCC[C@@H]1Nc1nc(Nc2ccc3c(c2)CCN3)ncc1F (racemic) [compound 157, Racemic-cis-N4-(2-aminocarbonylcyclopent-1-yl)-N2-(2,3-dihydroindol-5-yl)-5-fluoro-2,4-pyrimidinediamine]	5.00 to 6.00	5.00 to 6.00	–	–	–
Cc1cc(Nc2ncc(F)c(N[C@@H]3[C@H](C(=O)NC4CCC4)[C@H]4C=C[C@@H]3C4)n2)ccc1N1CCN(C)CC1 [compound 193, (1S,2S,3R,4R)-N4-[3-(N-Cyclobutyl)aminocarbonylbicyclo[2.2.1]hept-5-en-2-yl]-5-fluoro-N2-[3-methyl-4-(4-methylpiperazin-1-yl)phenyl]-2,4-pyrimidinediamine]	–	–	< 5.00	5.00 to 6.00	–
Cc1cc(Nc2ncc(F)c(NC3C4C=CC(C4)C3C(N)=O)n2)ccc1N1CCN(C2CCCCC2)CC1 (racemic) [compound 245, Racemic-(2-exo,3-exo)-N4-(3-aminocarbonylbicyclo[2.2.1]hept-5-en-2-yl)-N2-[4-(4-cyclohexylpiperazin-1-yl)-3-methylphenyl]-5-fluoro-2,4-pyrimidinediamine]	–	–	≥ 7.00	≥ 7.00	–
CN1CCN(C(=O)c2ccc(Nc3ncc(F)c(N[C@H]4CCC[C@H]4C(N)=O)n3)cc2)CC1 (racemic) [compound 281, Racemic-cis-N4-(2-aminocarbonylcyclopent-1-yl)-5-fluoro-N2-[4-(4-methylpiperaino-1-yl-carbonyl)phenyl]-2,4-pyrimidinediamine]	–	–	5.00 to 6.00	5.00 to 6.00	–
NC(=O)C1C2C=CC(C2)C1Nc1nc(Nc2ccc(C3CCNCC3)cc2)ncc1F (racemic) [compound 264, Racemic-(2-exo,3-exo)-N4-(3-aminocarbonylbicyclo[2.2.1]hept-5-en-2-yl)-5-fluoro-N2-[4-(piperidin-4-yl)phenyl]-2,4-pyrimidinediamine]	–	–	≥ 7.00	6.00 to 7.00	–
COc1cc(Nc2ncc(F)c(NC3C4C=CC(C4)C3C(N)=O)n2)ccc1N1CCN(C)CC1 (racemic) [compound 256, Racemic-(2-exo,3-exo)-N4-(3-aminocarbonylbicyclo[2.2.1]hept-5-en-2-yl)-5-fluoro-N2-[3-methoxy-4-(4-methylpiperazin-1-yl)phenyl]-2,4-pyrimidinediamine]	–	–	≥ 7.00	≥ 7.00	–
Cc1ccc(Nc2ncc(F)c(N[C@H]3[C@@H](C(N)=O)[C@@H]4C=C[C@H]3C4)n2)cc1OCC(=O)N1CCOCC1 [compound 125, (1R,2R,3S,4S)-N4-(3-Aminocarbonylbicyclo[2.2.1]hept-5-en-2-yl)-5-fluoro-N2-[4-methyl-3-(morpholin-4-ylcarbonylmethyleneoxy)phenyl]-2,4-pyrimidinediamine]	≥ 7.00	≥ 7.00	–	–	–
Cc1cc(Nc2ncc(F)c(NC3(C(N)=O)CCCC3)n2)ccc1N1CCN(C)CC1 [compound 248, N4-(1-Aminocarbonylcyclopent-1-yl)-5-fluoro-N2-[3-methyl-4-(4-methylpiperazin-1-yl)phenyl]-2,4-pyrimidinediamine]	–	–	< 5.00	< 5.00	–
